Drawing on patent US6376670B1, “Quinoline-indole antimicrobial agents, uses and compositions related thereto” (Sepracor Inc., priority 1997, dated 2002), this text covers MIC for 19 compounds.

Common to all, as to assay: Determination of MIC values (BHI broth, 96 well microtiter plate)
Common to all, as to assay type: cell-based

The subject of one assay is Streptococcus pneumoniae. The following applies: Streptococcus pneumoniae, BHI broth, read-out: MIC S. pneu. A digest of the protocol: (§1)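 Here, each test series spans final concentrations of 25 to 0.39 µg/mL in BHI broth, with DMSO as diluent. Plates seeded at 10^5–10^6 cells/mL are kept at 37° C and approx. 7-10% CO2 for about 16 hours before growth is scored.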
The test system of assay [1] is methicillin-resistant Staphylococcus aureus (MRSA). The following applies: Staphylococcus aureus, MRSA, BHI broth, read-out: MIC MRSA. A digest of the protocol:
as §1

For assay [2], the system named is vancomycin-resistant Enterococcus spp. (VRE). As to conditions: Enterococcus, VRE, BHI broth, read-out: MIC VREF. In a few lines:
as §1

Setting [3] is: 37° C., overnight (about 16 hours).
The mark [4] stands for this setting: 16 h, 37° C., overnight (about 16 hours).

Like-named read-outs stand apart in the source and are kept apart here.

Take `NCCNC(=O)c1cc(-c2c[nH]c3ccc(Cl)cc23)nc2cc(Br)ccc12` [Example 312]: the MIC was less than 7 µg/mL in the assay on Streptococcus pneumoniae (S. pneu, overnight 37° C.); less than 7 µg/mL in assay [1] (overnight 37° C.); less than 7 µg/mL in assay [2] (VREF, overnight 37° C.).

Consider `Cn1cc(-c2cc(C(=O)NCc3cccc(CN)c3)c3cc(Cl)ccc3n2)c2cc(Br)ccc21` [Example 366], for which the MIC was greater than 25 µg/mL with Streptococcus pneumoniae (S. pneu, overnight 37° C.); greater than 25 µg/mL in assay [1] (overnight 37° C.); greater than 25 µg/mL in assay [2] (VREF, overnight 37° C.).

On to `COc1ccc2[nH]cc(-c3ccc4ccc(C)cc4n3)c2c1` [Example 479], for which the MIC in the assay on Streptococcus pneumoniae (37° C., about 16 hours) was less than 25 µg/mL; in assay [1] (16 h, 37° C., about 16 hours) it was greater than 25 µg/mL; in assay [2] (16 h, 37° C., about 16 hours), greater than 25 µg/mL.

On to `NCc1ccc(CNC(=O)c2cc(-c3c[nH]c4ccc(Br)cc34)nc3ccc(-c4ccccc4)cc23)cc1` [Example 96], for which the MIC (with Streptococcus pneumoniae (setting [3]); in assay [1] (setting [4]); in assay [2] (setting [4])) was less than 7 µg/mL in each case.

On to `Cc1[nH]c2ccc(Cl)cc2c1-c1cc(Cl)c2ccccc2n1` [Example 465], for which the minimum inhibitory concentration (MIC) with Streptococcus pneumoniae (37° C., about 16 hours) was less than 7 µg/mL; in assay [1] (16 h, 37° C., about 16 hours), less than 7 µg/mL; in assay [2] (16 h, 37° C., about 16 hours), less than 25 µg/mL.

Consider `COc1ccc2[nH]c(C)c(-c3ccc4cccc(C)c4n3)c2c1` [Example 424], for which the MIC is less than 25 µg/mL in the assay with Streptococcus pneumoniae (37° C., about 16 hours); less than 25 µg/mL in assay [1] (16 h, 37° C., about 16 hours); greater than 25 µg/mL in assay [2] (16 h, 37° C., about 16 hours).

On to `CN(C)CCN(C)C(=O)c1cc(-c2c[nH]c3ccc(Br)cc23)nc2cc(Cl)c(C#CCN3CCCCC3)cc12` [Example 512], for which the MIC in the assay on Streptococcus pneumoniae (37° C., about 16 hours) is less than 7 µg/mL; in assay [1] (16 h, 37° C., about 16 hours), less than 7 µg/mL; in assay [2] (16 h, 37° C., about 16 hours) it was less than 7 µg/mL.

Regarding `NCc1cccc(CNC(=O)c2cc(-c3c[nH]c4ccc(Br)cc34)nc3c(F)cccc23)c1` [Example 257], the minimal inhibitory concentration (MIC) with Streptococcus pneumoniae (S. pneu, overnight 37° C.) is less than 7 µg/mL; in assay [1] (overnight 37° C.) it was less than 7 µg/mL; in assay [2] (VREF, overnight 37° C.), less than 7 µg/mL.

On to `O=C(c1cc(-c2c[nH]c3ccc(Br)cc23)nc2ccc(I)cc12)N1CCCNCC1` [Example 117], for which the MIC (in the assay with Streptococcus pneumoniae (setting [3]); in assay [1] (setting [4]); in assay [2] (setting [4])) was less than 7 µg/mL each time.

`O=[N+]([O-])c1ccc2[nH]cc(-c3cc(Cl)c4ccccc4n3)c2c1` [Example 349]: the MIC with Streptococcus pneumoniae (S. pneu, overnight 37° C.) was greater than 25 µg/mL; in assay [1] (overnight 37° C.) it was greater than 25 µg/mL; in assay [2] (VREF, overnight 37° C.), greater than 25 µg/mL.

Turning to `Clc1ccc2nc(-c3c[nH]c4ccc(Br)cc34)ccc2c1` [Example 153], the MIC in the assay with Streptococcus pneumoniae (setting [3]) is less than 7 µg/mL; in assay [1] (setting [4]), less than 7 µg/mL; in assay [2] (setting [4]), greater than 25 µg/mL.

Take `Fc1ccc2[nH]cc(-c3cc(Cl)c4ccccc4n3)c2c1` [Example 339]: the MIC is less than 7 µg/mL in the assay on Streptococcus pneumoniae (S. pneu, overnight 37° C.); less than 7 µg/mL in assay [1] (overnight 37° C.); less than 7 µg/mL in assay [2] (VREF, overnight 37° C.).

For `NCc1ccc(CNC(=O)c2cc(-c3c[nH]c4ccc(Br)cc34)nc3cc(Br)ccc23)cc1` [Example 138], the MIC (with Streptococcus pneumoniae (setting [3]); in assay [1] (setting [4]); in assay [2] (setting [4])) was less than 7 µg/mL each time.

As for `NCc1cccc(CNC(=O)c2cc(-c3c[nH]c4ccc(Br)cc34)nc3ccc(C#CCN4CCCC4)cc23)c1` [Example 242], the MIC was less than 7 µg/mL in the assay with Streptococcus pneumoniae (S. pneu, overnight 37° C.); less than 7 µg/mL in assay [1] (overnight 37° C.); less than 25 µg/mL in assay [2] (VREF, overnight 37° C.).

For the compound `NCc1cc(-c2c[nH]c3ccc(Br)cc23)nc2cc(F)ccc12` [Example 509], the MIC is less than 7 µg/mL in the assay on Streptococcus pneumoniae (37° C., about 16 hours); less than 7 µg/mL in assay [1] (16 h, 37° C., about 16 hours); less than 7 µg/mL in assay [2] (16 h, 37° C., about 16 hours).

As to `OCc1cc(-c2c[nH]c3ccc(Br)cc23)nc2cc(Br)ccc12` [Example 335], the MIC with Streptococcus pneumoniae (S. pneu, overnight 37° C.) was less than 7 µg/mL; in assay [1] (overnight 37° C.), less than 7 µg/mL; in assay [2] (VREF, overnight 37° C.) it was less than 7 µg/mL.

Turning to `Cc1cccc2ccc(-c3c[nH]c4cc(Cl)ccc34)nc12` [Example 410], the MIC in the assay on Streptococcus pneumoniae (37° C., about 16 hours) was less than 25 µg/mL; in assay [1] (16 h, 37° C., about 16 hours), less than 25 µg/mL; in assay [2] (16 h, 37° C., about 16 hours), greater than 25 µg/mL.

For the compound `NCc1cc(-c2c[nH]c3ccc(Br)cc23)nc2cc(Cl)ccc12` [Example 511], the minimal inhibitory concentration (MIC) was less than 7 µg/mL with Streptococcus pneumoniae (37° C., about 16 hours); less than 7 µg/mL in assay [1] (16 h, 37° C., about 16 hours); less than 7 µg/mL in assay [2] (16 h, 37° C., about 16 hours).

On to `COC(=O)c1cc(-c2c[nH]c3ccc(Br)cc23)nc2cc(F)ccc12` [Example 486], for which the MIC is less than 7 µg/mL in the assay on Streptococcus pneumoniae (37° C., about 16 hours); less than 7 µg/mL in assay [1] (16 h, 37° C., about 16 hours); less than 7 µg/mL in assay [2] (16 h, 37° C., about 16 hours).

In general, MIC refers to the smallest concentration in the dilution series that meets the test's criterion for growth inhibition.
